# Test results published in US20220390432A1, “METHODS OF CHARACTERIZING AND UTILIZING AGENT-CONDENSATE INTERACTIONS” (Whitehead Institute for Biomedical Research, priority 2019, published 2022).
# “Also recorded” adds a separate entry of the source.
# Key:
# [1] = molecular target: T1, MED1 (Homo sapiens, UniProt Q15648); assay: In vitro droplet assay, small molecule partitioning into MED1 condensates; assay type: binding; conditions: for partitioning / incorporation into MED1 droplets: confocal fluorescence, Example 2: 125 mM NaCl, 10% PEG, 10 μM protein, fluorescent or fluorescently labeled drug
# T1 construct: MED1—amino acids 600-1581; 6xHis (N); made in house; host or cells: LOBSTR cells (E. coli)
# T1 sequence (Q15648 600-1581): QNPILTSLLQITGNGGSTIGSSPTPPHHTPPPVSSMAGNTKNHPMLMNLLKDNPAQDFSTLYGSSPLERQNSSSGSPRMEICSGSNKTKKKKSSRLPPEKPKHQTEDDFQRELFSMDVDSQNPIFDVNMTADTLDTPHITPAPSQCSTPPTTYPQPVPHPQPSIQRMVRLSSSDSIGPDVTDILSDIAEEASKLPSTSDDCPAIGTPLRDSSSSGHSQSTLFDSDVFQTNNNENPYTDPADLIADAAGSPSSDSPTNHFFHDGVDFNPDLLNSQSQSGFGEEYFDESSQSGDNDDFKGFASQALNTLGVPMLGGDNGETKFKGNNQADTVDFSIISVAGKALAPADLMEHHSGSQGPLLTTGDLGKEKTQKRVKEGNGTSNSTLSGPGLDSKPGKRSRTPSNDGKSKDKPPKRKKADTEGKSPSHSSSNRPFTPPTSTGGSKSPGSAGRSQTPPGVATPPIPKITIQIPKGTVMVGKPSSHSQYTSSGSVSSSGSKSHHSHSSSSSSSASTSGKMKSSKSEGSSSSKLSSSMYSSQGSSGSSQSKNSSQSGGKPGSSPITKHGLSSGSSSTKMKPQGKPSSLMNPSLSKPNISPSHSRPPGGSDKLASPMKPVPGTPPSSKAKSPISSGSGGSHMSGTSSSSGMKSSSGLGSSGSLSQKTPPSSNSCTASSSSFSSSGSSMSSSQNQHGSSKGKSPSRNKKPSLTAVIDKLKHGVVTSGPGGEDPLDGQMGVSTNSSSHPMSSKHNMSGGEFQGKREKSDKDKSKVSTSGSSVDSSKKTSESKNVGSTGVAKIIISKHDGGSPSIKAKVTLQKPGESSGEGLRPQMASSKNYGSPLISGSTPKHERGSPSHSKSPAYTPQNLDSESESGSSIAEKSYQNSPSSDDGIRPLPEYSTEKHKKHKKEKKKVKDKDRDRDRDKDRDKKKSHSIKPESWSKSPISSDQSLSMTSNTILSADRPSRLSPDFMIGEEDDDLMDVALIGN
# Description: (§1) Recombinant BFP, GFP, or mCherry fusion proteins were concentrated and desalted to an appropriate protein concentration and 125 mM NaCl using Amicon Ultra centrifugal filters (30K MWCO, Millipore). Recombinant protein was added too. […] The protein solution was immediately loaded onto glass bottom 384 well plate (Cellvis P384-1.5H-N) and imaged with an Andor confocal microscope with a 150× objective. Unless indicated, images presented are of droplets settled on the glass coverslip.
# (§2) Drug and small molecule concentrations used in the droplet experiments are as follows:
# To analyze in vitro droplet experiments, custom Python scripts using the scikit-image package were written to identify droplets and characterize their size, shape and intensity. Droplets were segmented from average images of captured channels on various criteria: (1) an intensity threshold that was three s.d. above the mean of the image; (2) size thresholds (20 pixel minimum droplet size); and (3) a minimum circularity (circularity=4π·areaperimeter2) (circularity=4π·areaperimeter2) of 0.8 (1 being a perfect circle). After segmentation, mean intensity for each droplet was calculated while excluding pixels near the phase interface, and background-corrected by subtracting intensity of dark images of droplet formation buffer only. Droplets identified in the channel of the fluorescent protein from ten independent fields of view were quantified for each experiment. The maximum intensity of signal within the droplets was calculated for each channel, the maximum intensity in the drug channel was termed “maximum drug intensity”. To obtain the intensity of drug or dye alone in the diffuse state (termed “diffuse drug intensity”), the compound was added to droplet formation buffer at same concentration used in the droplet assay. This was then imaged on a confocal fluorescent microscope. The resulting image was processed in FIJI to obtain the fluorescent intensity of the field. To obtain the fluorescent intensity of protein droplets that bleed through in the drug channel (termed “background intensity”) protein droplets were imaged in the fluorescent channel in which the drug fluoresces and processed as above to obtain the average maximum intensity within the droplet across 10 images. The enrichment ratio was obtained by the following formula [(maximum drug intensity)−(background intensity)]/(diffuse drug intensity). The box plots show the distributions of all droplets. Each dot represents an individual droplet.
# [2] = molecular target: T2, HP1α (Homo sapiens, UniProt P45973); assay: In vitro droplet assay, small molecule partitioning into HP1α condensates; assay type: binding
# T2 construct: HP1α—full length, amino acids 1-191; 6xHis (N); made in house; host or cells: LOBSTR cells (E. coli)
# T2 sequence (P45973 whole entry, the tested form may be a part): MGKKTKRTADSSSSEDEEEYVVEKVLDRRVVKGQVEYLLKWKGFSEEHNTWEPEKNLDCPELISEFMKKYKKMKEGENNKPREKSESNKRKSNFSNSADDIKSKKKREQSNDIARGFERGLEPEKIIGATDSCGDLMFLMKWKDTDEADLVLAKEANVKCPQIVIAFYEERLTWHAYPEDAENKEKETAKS
# Description: as §1, §2
# (§3) To analyze in vitro droplet experiments, custom Python scripts using the scikit-image package were written to identify droplets and characterize their size, shape and intensity. […] After segmentation, mean intensity for each droplet was calculated while excluding pixels near the phase interface, and background-corrected by subtracting intensity of dark images of droplet formation buffer only. Droplets identified in the channel of the fluorescent protein from ten independent fields of view were quantified for each experiment. The maximum intensity of signal within the droplets was calculated for each channel, the maximum intensity in the drug channel was termed “maximum drug intensity”. […]
# [3] = Droplet formation assay of small molecule alone without any protein; assay type: physicochemical; conditions: without any protein added
# Description: as §1, with “Recombinant protein was added too.” left out
# [4] = test system: MED1 condensate at the LAC array in U2OS cells; assay: LAC binding assay, FLTX1 enrichment at tethered MED1 or HP1α; assay type: cell-based, human; conditions: ESR1 not expressed, 1 uM FLTX1
# Description: Constructs were assembled by NEB HIFI cloning in pSV2 mammalian expression vector containing an SV40 promoter driving expression of a mCherry-LacI fusion protein. The intrinsically disordered region of MED1, HP1α, or the activation domain of ESR1 was fused by the c-terminus to this recombinant protein, joined by the linker sequence […] (SEQ ID NO: 16). For experiments comparing FLTX1 enrichment at the array, U20S-Lac cells were plated onto chambered coverglass (1.5 Borosilicate Glass, Nunc Lab-Tek, 155409) and transfected with either MED1 IDR or HP1α constructs with lipofectamine 3000 (Thermofisher L3000015). After 24 hours, cells were treated with either 1 uM FLTX1 or vehicle (DMF). […]
# For analysis of Lac array data comparing MED1 or HP1α tethered, a region of interest was called using the signal in the Lac array (561 channel). The average fluorescent signal for FLTX1 (488 channel) was then measured in the region of interest and divided by the average fluorescence in the region of interest at the Lac array. […] For analysis of Lac array data for MED1 overexpression, enrichment was calculated by dividing the average fluorescent signal for MED1 immunofluorescence at the region of interest, defined by the ER tethered at the lac array, by MED1 immunofluorescence signal at a random nuclear region.
# [5] = test system: MED1, BRD4, and POL2 condensates in HCT116 colon cancer cell lines; assay: Small molecule effects on transcriptional condensates in GFP-tagged HCT116 cells; assay type: cell-based, human; conditions: for effect on transcriptional condensates: MED1-GFP, BRD4-GFP, POL2-GFP HCT116
# Text: HCT116 colon cancer cell lines endogenously tagged with MED1-GFP, BRD4-GFP, POL2-GFP, or HP1a-GFP (Mock), all forming condensates in the nucleus.
# [6] = test system: BRD4 at super-enhancers; assay: Super-enhancers versus typical enhancers, gene expression and BRD4 genomic occupancy; assay type: cell-based
# [7] = test system: MED1 genomic occupancy in HCT116 cells; assay: MED1 ChIP-seq in HCT116 cells; assay type: cell-based, human; conditions: JQ1 for 24 hours
# [8] = test system: platinated DNA at MYC locus in HCT116 cells; assay: Immunofluorescence with MYC DNA FISH after JQ1 then cisplatin; assay type: cell-based, human; conditions: 1 μM JQ1 24 hours, then 50 μM cisplatin 6 hours
# [9] = molecular target: T3, FIB1 (Homo sapiens, UniProt P22087); assay: In vitro droplet assay, small molecule partitioning into FIB1 condensates; assay type: binding; conditions: 125 mM NaCl, 10% PEG, 10 μM protein
# T3 construct: FIB1—full length, amino acids 1-321; 6xHis (N); made in house; host or cells: LOBSTR cells (E. coli)
# T3 sequence (P22087 whole entry, the tested form may be a part): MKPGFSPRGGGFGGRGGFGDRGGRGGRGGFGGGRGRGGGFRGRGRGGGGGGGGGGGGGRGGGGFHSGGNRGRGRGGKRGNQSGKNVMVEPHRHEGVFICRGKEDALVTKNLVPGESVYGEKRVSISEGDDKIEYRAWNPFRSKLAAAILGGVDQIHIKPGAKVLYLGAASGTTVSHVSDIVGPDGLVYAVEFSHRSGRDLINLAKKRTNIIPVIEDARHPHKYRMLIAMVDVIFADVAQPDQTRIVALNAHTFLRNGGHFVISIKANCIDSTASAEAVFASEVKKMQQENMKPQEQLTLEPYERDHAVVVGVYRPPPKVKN
# Description: as §1, §2, §3
# [10] = molecular target: T4, NPM1 (Homo sapiens, UniProt P06748); assay: In vitro droplet assay, small molecule partitioning into NPM1 condensates; assay type: binding; conditions: 125 mM NaCl, 10% PEG, 10 μM protein
# T4 construct: NPM1—full length, amino acids 1-294; 6xHis (N); made in house; host or cells: LOBSTR cells (E. coli)
# T4 sequence (P06748 whole entry, the tested form may be a part): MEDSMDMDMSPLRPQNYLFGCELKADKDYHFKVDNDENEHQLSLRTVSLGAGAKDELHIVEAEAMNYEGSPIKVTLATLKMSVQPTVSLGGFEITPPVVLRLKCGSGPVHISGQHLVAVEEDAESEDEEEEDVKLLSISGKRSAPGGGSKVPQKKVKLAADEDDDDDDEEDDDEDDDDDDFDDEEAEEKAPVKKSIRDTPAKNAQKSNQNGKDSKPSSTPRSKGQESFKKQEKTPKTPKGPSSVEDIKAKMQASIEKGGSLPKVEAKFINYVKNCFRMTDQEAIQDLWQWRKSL
# Description: as §1, §2, §3
# [11] = molecular target: T5, MED1 condensates (Homo sapiens, UniProt Q15648); assay: Determination of partitioning by spectrophotometry and quantitative phase microscopy; assay type: binding; conditions: uv spectroscopy of drug remaining in solution plus condensate volume estimate
# T5 construct: MED1—amino acids 600-1581; 6xHis (N); made in house; host or cells: LOBSTR cells (E. coli)
# T5 sequence (Q15648 600-1581): as the sequence (Q15648 600-1581) above
# Text: Here, an expression is derived briefly for the partition coefficient of a client molecule into a condensed phase in terms of quantities that are readily measurable experimentally. A sample composed of two coexisting phases is considered, named dilute and condensed, with volume fractions ϕdilute and […]. If a client molecule (e.g. a drug) is also present in the sample at an average concentration of ctotal, then mass conservation requires that
# the ratio is estimated ctotal/cdilute from fluorescence spectroscopy measurements, as described in a subsequent section, while ϕcond, it is inferred from the lever rule (M. Rubinstein, R. H. Colby, Polymer Phyics (Oxford University Press, 2003) as follows: denoting the concentration of scaffold protein (e.g. MED1) by s, mass conservation gives stotal=sdiluteϕdilute+scondϕcond, in analogy with Eq. 1. Again using the requirement that the volume fractions of coexisting phases sum to 1, this can be rearranged to yield
# where stotal and sdilute are measured spectrophotometrically from optical absorbance at 280 nm, and scond is measured from quantitative phase microscopy, using a coherence-controlled holographic microscope (Q-Phase, Telight (formerly TESCAN), Bmo, CZ) equipped with 40× dry objectives (NA=0.90). […]
# where A is the measured absorbance (in Absorbance Units (AU)), I0 is the intensity of the incident light at a given wavelength, I is the transmitted intensity, L the path length through the sample, and c the concentration of the absorbing species. […] The partitioned drug was measured by using spin down assay. […] The supernatant was collected and measured the concentrations of the drug. The partitioned drug was calculated by subtracting from the total known concentration of drug added.
# Quantitative phase measurements were performed using a coherence-controlled holographic microscope (Q-Phase, Telight (formerly TESCAN), Brno, CZ) equipped with 40× dry objectives (NA=0.90) as follows. […]
# Q-PHASE software was used to construct compensated phase images from acquired holograms, which were subsequently analyzed in MATLAB using custom code. […]
# [12] = test system: nucleolus; conditions: references (35, 36); cited from earlier work
Structure (SMILES),"drug concentration in larger MED1 condensates ([1]; 20 μM (High) vs 5 μM (Low) MED1, 100 μM FLTX1)",partitioning / incorporation into MED1 droplets [1],partitioning / incorporation into HP1α droplets [2],droplet formation of small molecule alone [3],FLTX1 enrichment at MED1 condensate tethered to the LAC array [4],effect on transcriptional condensates [5],"effect on transcriptional condensates, long exposure ([5]; long exposure (e.g., 24 hours))","MED1 condensates after JQ1 ([5]; mEGFP-MED1 tagged HCT116 cells, JQ1 for 24 hours)","effect on transcriptional condensates, short exposure ([5]; short exposure (e.g., 5 minutes))","BRD4 genomic occupancy, super-enhancers versus typical enhancers [6]",sensitivity of gene expression by super-enhancers versus typical enhancers [6],MED1 ChIP-Seq at MYC after JQ1 [7],platinated DNA at the MYC locus after JQ1 treatment [8],partitioning into FIB1 condensates [9],partitioning into NPM1 condensates [10],partition ratio in MED1 condensates [11],subcellular concentration [12]
CC/C(=C(\c1ccccc1)c1ccc(OCCN(C)c2ccc([N+](=O)[O-])c3nonc23)cc1)c1ccccc1 [FLTX1],lower concentrations of the drug,concentrated preferentially in MED1 droplets; also recorded: incorporated into MED1 containing condensates; also recorded: incorporates into MED1 droplets,does not incorporate,diffuse fluorescent signal,concentrated FLTX1 at the site of the condensate; also recorded: concentrates in MED1 condensates in cells,,,,,,,,,,,,
"Cc1sc2c(c1C)C(c1ccc(Cl)cc1)=N[C@@H](CC(=O)OC(C)(C)C)c1nnc(C)n1-2 [JQ1, (S)-tert-butyl 2-(4-(4-chlorophenyl)-2,3,9-trimethyl-6H-thieno[3,2-ƒ][1,2,4]triazolo[4,3-a][1,4]diazepin-6-yl)acetate]",,,,diffuse fluorescent signal,,"reduces the number of, or eliminates",genomic release and consolidation of condensates,loss of MED1 condensates; also recorded: diminution of MED1 condensates,eviction of some condensate components,reduces BRD4 genomic occupancy in super-enhancers to a greater extent than typical enhancers,more sensitive,loss of MED1 loading,concomitant reduction in platinated DNA at the MYC oncogene; also recorded: loss of signal for platinated DNA,,,,
O=C1c2c(O)ccc(O)c2C(=O)c2c(NCCNCCO)ccc(NCCNCCO)c21 [Mitoxantrone],,concentrated; also recorded: immediately incorporate into MED1 droplets,,diffuse fluorescent signal,,global dissolution of condensates; also recorded: cause condensate dissolution,,,,,,,,concentrated,concentrated,approximately 100 fold,concentrate in the nucleolus
